According to ChEMBL document CHEMBL3817755, “Design, synthesis and biological evaluation of indazolepyrimidine based derivatives as anticancer agents with anti-angiogenic and antiproliferative activities” (Medchemcomm, 2016):

Key:
Format in all cases: functional
K562 = experiment: Growth inhibition of human K562 cells at 10 uM after 48 hrs by SRB assay; details: K562, 48 h, read-out: GI
A549 = experiment: Growth inhibition of human A549/ATCC cells at 10 uM after 48 hrs by SRB assay; details: A549, 48 h, read-out: GI
NCI-H322M = experiment: Growth inhibition of human NCI-H322M cells at 10 uM after 48 hrs by SRB assay; details: read-out: GI
KM12 = experiment: Growth inhibition of human KM12 cells at 10 uM after 48 hrs by SRB assay; details: KM12, 48 h, read-out: GI
[1] = Growth inhibition of human SF295 cells at 10 uM after 48 hrs by SRB assay; details: SF-295, 48 h, read-out: GI
[2] = Growth inhibition of human SF539 cells at 10 uM after 48 hrs by SRB assay; details: SF-539, 48 h, read-out: GI
U-251 = experiment: Growth inhibition of human U251 cells at 10 uM after 48 hrs by SRB assay; details: U-251, 48 h, read-out: GI
SK-MEL-28 = experiment: Growth inhibition of human SK-MEL-28 cells at 10 uM after 48 hrs by SRB assay; details: SK-MEL-28, 48 h, read-out: GI
[3] = Growth inhibition of human UACC257 cells at 10 uM after 48 hrs by SRB assay; details: UACC-257, 48 h, read-out: GI
[4] = Growth inhibition of human OVCAR5 cells at 10 uM after 48 hrs by SRB assay; details: OVCAR-5, 48 h, read-out: GI
[5] = Growth inhibition of human OVCAR8 cells at 10 uM after 48 hrs by SRB assay; details: OVCAR-8, 48 h, read-out: GI
[6] = Growth inhibition of human Caki1 cells at 10 uM after 48 hrs by SRB assay; details: CAKI-1, 48 h, read-out: GI
[7] = Growth inhibition of human RXF393 cells at 10 uM after 48 hrs by SRB assay; details: RXF 393, 48 h, read-out: GI
[8] = Growth inhibition of human TK10 cells at 10 uM after 48 hrs by SRB assay; details: TK-10, 48 h, read-out: GI
MCF7 = experiment: Growth inhibition of human MCF7 cells at 10 uM after 48 hrs by SRB assay; details: MCF7, 48 h, read-out: GI
MDA-MB-231 = experiment: Growth inhibition of human MDA-MB-231 cells at 10 uM after 48 hrs by SRB assay; details: MDA-MB-231, 48 h, read-out: GI
[9] = Growth inhibition of human BT549 cells at 10 uM after 48 hrs by SRB assay; details: BT-549, 48 h, read-out: GI

Fc1ccc(Nc2nccc(Nc3ccc4[nH]ncc4c3)n2)cc1
inhibition of growth at 10 µM (K562): 61% | inhibition of growth at 10 µM (A549): 43% | inhibition of growth at 10 µM (NCI-H322M): 27% | inhibition of growth at 10 µM (KM12): 76% | inhibition of growth at 10 µM [1]: 11% | inhibition of growth at 10 µM [2]: 22% | inhibition of growth at 10 µM (U-251): 35% | inhibition of growth at 10 µM (SK-MEL-28): 11% | inhibition of growth at 10 µM [3]: 26% | inhibition of growth at 10 µM [4]: 32% | inhibition of growth at 10 µM [5]: 59% | inhibition of growth at 10 µM [6]: 51% | inhibition of growth at 10 µM [7]: 67% | inhibition of growth at 10 µM [8]: 38% | inhibition of growth at 10 µM (MCF7): 37% | inhibition of growth at 10 µM (MDA-MB-231): 21% | inhibition of growth at 10 µM [9]: 33%
